Laboratory results taken from the METLIN SMRT retention time set (Domingo-Almenara et al. 2019).

Test: gradient 5% acetonitrile 3 min, to 50% in 2 min, to 85% in 15 min, held 3 min, 100 µL/min
Conditions: column: Zorbax Extend-C18 2.1 x 50 mm; eluents: water / acetonitrile, 0.1% formic acid
Summary of the method: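 Values are retention times taken from adduct peaks that software picked and an analyst inspected. The pure standards were run as mixtures of ~100 molecules on HPLC linked to a quadrupole time-of-flight mass spectrometer, in positive and negative ionization mode. A Zorbax Extend-C18 column (2.1 × 50 mm, 1.8 μm) was used at 100 μL/min with water and acetonitrile, each including 0.1% formic acid.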

SMILES | RP-LC retention time
Cc1cc(C)cc(C(=O)N2CCC3(CC2)NC(=O)c2cc(F)ccc2N3C)c1 | 787 s
O=S(=O)(c1ccc(Cl)c(-c2nnc(-c3ccccc3)o2)c1)N1CCCCC1 | 1130 s
Cc1c(C(=O)Nc2ccccc2)sc2nc[nH]c(=O)c12 | 679 s
CCNS(=O)(=O)c1cccnc1Nc1ccc(Cl)c(C)c1 | 1100 s
COc1ccc(NC(=O)c2c(C)oc3nc(C)nc(N4CCOCC4)c23)cc1OC | 711 s
COC1CCN(CC2CCCCCN2C(=O)Nc2ccc3c(c2)OCCO3)CC1 (centres undefined) | 651 s
CCc1nnc(-c2ccc3ccn(CC(=O)Nc4cc(C)ccc4OC)c3c2)o1 | 932 s
CC(=O)N1CCC(C(=O)Nc2ncc(C)s2)CC1 | 617 s
CCOc1ccccc1C1NC(=O)N(CC(=O)N2CCN(c3ccc(F)cc3)CC2)C2=C1C(=O)OC2 (centres undefined) | 830 s
O=C1CCC(c2ccccc2)=NN1c1nc2ccccc2s1 | 884 s
CCOc1ccc2c(n1)CCN(C(=O)C1(c3ccc(OC)cc3)CC1)C2 | 683 s
CCn1ccc2c(cc(C(=O)Nc3ccc(C)cc3)n2C)c1=O | 769 s
COc1cccc(NC(=O)NCc2cc(C)oc2C)c1OC | 815 s
CC(C)(C)CC(=O)NCCc1noc(C2CC2)n1 | 713 s
Cc1nn(C)c2nc(OCC(=O)N3CCCCCC3)cc(C(F)(F)F)c12 | 958 s
Cc1ccn2cc(-c3ccc(C)c(NS(=O)(=O)c4ccc(Cl)cc4)c3)nc2c1 | 698 s
Cc1ccc(Cl)cc1NC(=O)N1CCC(N2CCN(Cc3ccccn3)C(=O)C2=O)CC1 | 647 s
COc1ccc(NC(=O)Cn2cnc3nc(N4CCCC(C(=O)NC5CC5)C4)sc3c2=O)cc1 (centres undefined) | 681 s
Cn1c(=O)c2c(ncn2CC(=O)N2CCCn3nc(-c4ccc(C(F)(F)F)cc4)cc3C2)n(C)c1=O | 763 s
Cn1ncc2c3ccccc3n(CC(=O)NCCCN3CCCC3=O)c2c1=O | 615 s
O=C(CCc1csc(NC(=O)c2ccc(F)cc2)n1)NCCn1ncccc1=O | 624 s
Cc1cccn2cc(-c3cccc(S(=O)(=O)N4CCCC4)c3)nc12 | 637 s
Cc1ccc(S(=O)(=O)N2CCCC2c2nc(-c3cccc(Cl)c3)no2)cc1F (centres undefined) | 1280 s

SMILES | RP-LC retention time
Cc1ccc(NS(=O)(=O)c2cc3c(=O)n(C)ncn3c2)cc1 | 821 s
O=C(Nc1nnc(SCc2cccc(F)c2)s1)C1CCCCC1 | 1010 s
C[C@H](NC(=O)Cc1cc(F)cc(F)c1)C(=O)N[C@@H]1C(=O)N(C)c2ccccc2-c2ccccc21 | 949 s
CCOC(=O)c1[nH]c(C)c(CCC(=O)Nc2ccc3c(c2)OCCO3)c1C | 805 s
Cc1ccc(C(=O)Nc2c(-c3ccccc3)nc3ccccn23)cc1[N+](=O)[O-] | 693 s
CCCN1C(=O)CN(S(C)(=O)=O)CC1(C)C(=O)NCc1ccc(C)cc1 (centres undefined) | 758 s
Cc1nn(-c2ccc(-c3ccccc3)nn2)c(C)c1S(=O)(=O)N1CCN(C(C)C)CC1 | 683 s
Cc1cc(=O)n(CC(=O)NCc2ccc3c(c2)OCO3)c(N2CCc3ccccc3C2)n1 | 718 s
CCC(C)NC(=O)C1COC2(CCN(C(=O)c3ccc(F)cc3F)CC2)N1C(=O)c1ccccc1 (centres undefined) | 744 s
COc1ccc(NC(=O)N2CCc3nc(-c4ccccc4)sc3C2)cc1OC | 820 s
O=C(NCc1ccc(Cl)cc1)C1CCN(c2ccc(SCc3ccccc3)nn2)CC1 | 824 s
COc1ccc(Nc2c(-c3ccc(N(C)C)cc3)nc3cnccn23)cc1OC | 687 s
Cc1cccc(CNC(=O)c2ccc3ncnc(N4CCCC4)c3c2)c1 | 647 s
CC(=O)N1CCc2sc(S(=O)(=O)N3CCN(c4ccccc4C)CC3)cc2C1 | 995 s
Cc1ccsc1C(=O)N1CCc2cc(-c3ccno3)ccc21 | 924 s
O=C(Cn1cnc2c(-c3ccc(F)cc3)csc2c1=O)N1CCCC1 | 783 s
CCOc1ccccc1NC(=O)CN1CCC(c2nnc(-c3ccco3)s2)CC1 | 594 s
Cc1ccc(C)c(CN2CCC(N3CCN(Cc4nc(C)no4)C3=O)C2)c1 (centres undefined) | 630 s
Cc1ccc(NS(=O)(=O)c2cn(CC(C)C)c3ncccc23)c(F)c1 | 986 s
Cc1cc(OCC(=O)Nc2cccc(Cl)c2C)nc(N2CCN(c3ccccc3)CC2)n1 | 949 s
O=C(N[C@H]1C[C@@H]2C[C@H]1CN2C(=O)Nc1ccc(C(F)(F)F)cc1)c1cccs1 | 840 s
COc1ccc(CNC(=O)c2nnc(-c3ccc(S(=O)(=O)N(C)C)cc3)o2)cc1OC | 865 s
Cc1cc(NS(=O)(=O)c2cc3n(c2)CCN(C)C3=O)ccc1F | 698 s

SMILES | RP-LC retention time
CCn1cc(CCN2CCN(S(=O)(=O)c3ccc(C)c(Cl)c3)CC2)c2cccnc21 | 708 s
O=c1ccn(-c2cccc(F)c2)nc1-c1nc(-c2cccc(F)c2)no1 | 906 s
O=C(NC1CCCC1)C1(CCO)CCN(Cc2ccccc2)C1 (centres undefined) | 609 s
O=C(NCCN1CCCC1)c1nc2ccccn2c1-c1ccc(F)cc1 | 611 s
CCOC(=O)C(C)(C)Sc1nnc(NC(=O)C2CCN(S(C)(=O)=O)CC2)s1 | 721 s
CCC1Oc2ccc(S(=O)(=O)N3CCC(C(=O)Nc4cc(C)cc(C)c4)CC3)cc2NC1=O (centres undefined) | 837 s
COC(=O)c1c(NCc2cccc(Br)c2)c2cc(F)ccc2[nH]c1=O | 831 s
O=C(NCc1ccccc1)NC1CCN(c2nc3cccnc3n(Cc3ccccc3)c2=O)CC1 | 1020 s
COc1ccc(-c2nc3ccc(Cl)cn3c2Nc2ccc3c(c2)OCCO3)cc1 | 750 s
CCCC1c2nccn2CCCN1C(=O)c1ocnc1C (centres undefined) | 558 s
Nc1c2ccccc2nc2ccccc12 | 637 s
Cc1cc(N2CCC(NC(=O)Nc3ccc4c(c3)OCCO4)C2=O)ccc1F (centres undefined) | 774 s
Nc1cc(C2CCN(C(=O)Nc3ccc(F)cc3)CC2)no1 | 668 s
Cc1noc(C2CCCCN2Cc2nc(-c3ccccn3)no2)n1 (centres undefined) | 639 s
CC(C)c1ccc(N2C(=O)CC(N3CCC(C(N)=O)CC3)C2=O)cc1 (centres undefined) | 638 s
CC(C)c1ccc(NC(=O)CN2C(=O)CC(C)(C)S(=O)(=O)c3ccccc32)cc1 | 898 s
Cc1cc(N2CCN(C(=O)Nc3cccc(F)c3)CC2)nc(N2CCCC2)n1 | 680 s
CC1Oc2ccc(-c3csc(NC(=O)c4cccs4)n3)cc2NC1=O (centres undefined) | 839 s
COc1cc(NS(=O)(=O)c2cc(-c3nc(C)cs3)n(CC(=O)N3CCCC3)c2)cc(OC)c1 | 877 s
CCCCCCC(C)OC(=O)c1ccccc1C(=O)O (centres undefined) | 1130 s
CC(C)NC(=O)N1CCC(c2nc3cccnc3n2C)C1 (centres undefined) | 572 s
CN(C)CCCNC(=O)c1ccc2c(c1)nc1n2CCN(C2CCCCC2)C1=O | 605 s
CC(=O)N1CCC(C2CCN(S(=O)(=O)c3ccc(Cl)s3)C2)CC1 (centres undefined) | 761 s

SMILES | RP-LC retention time
Cc1nc2cc(-c3noc(/C=C/c4cccs4)n3)ccc2o1 | 1080 s
c1cn(-c2cc(NC3CCCCC3)ncn2)cn1 | 617 s
Cc1nnc(NC(=O)Cn2cnc(-c3cccs3)cc2=O)s1 | 630 s
Cc1ccc(C)c(N2CCN(C(=O)Cn3nc(C(=O)N4CCCCC4)c4ccccc43)CC2)c1 | 1100 s
N#CCNC(=O)c1ccc(-c2ccnc(Nc3ccc(N4CCOCC4)cc3)n2)cc1 | 719 s
Cc1cc2c(cc1S(=O)(=O)N1CCCC1C(=O)NCCCc1ccccc1)OC(C)C(=O)N2 (centres undefined) | 822 s
CCCS(=O)(=O)c1nc2ccc(NS(=O)(=O)c3ccc(C)cc3C)cc2s1 | 999 s
Clc1ccccc1/C=C/c1ccnc2ccccc12 | 910 s
CCCCCCCNCc1ccc2c(c1)n(C)c(=O)n2C | 641 s
Cc1nn(CC(=O)N2CCN(C(C)C)CC2)c(=O)c2nc(-c3ccccc3)sc12 | 620 s
CCc1ccc(-c2cc(C(=O)N3CCCN(c4ccc(=O)n(-c5ccc(C)cc5)n4)CC3)[nH]n2)cc1 | 873 s
COc1ccc(-c2nnc(SCC(=O)Nc3nccs3)o2)cc1 | 720 s
Cc1ccnc(NC(=O)C2CCN(S(=O)(=O)c3cc(C(=O)N4CCOCC4)cs3)CC2)c1 | 614 s
COCCn1c(SCc2nc(-c3ccc(Cl)cc3)no2)nc2cc3c(cc2c1=O)OCO3 | 1180 s
Cn1c(=O)n(C)c2cc(N3CCCCC3)c(NC(=O)NCc3ccc(F)cc3)cc21 | 659 s
COc1ccc(S(=O)(=O)N(C)C2CCc3nn(CC4CC4)c(=O)n3CC2)cc1OC (centres undefined) | 731 s
CCOC(=O)C(=O)NCC1CN(c2ccccc2)C(=O)O1 (centres undefined) | 647 s
Cc1cc2ncn(CC3CCN(C(=O)c4ccsc4)CC3)c2cc1C | 583 s
c1coc(-c2nc3ccccc3c3nnc(SCc4cn5ccccc5n4)n23)c1 | 867 s
CCCN1CCN(C(=O)c2cn(-c3ccc(-c4nc(C(C)(C)C)no4)cn3)cn2)CC1 | 681 s
